Measurements from US20240208904A1, “CRYSTALLINE POTASSIUM SALT OF 1-ETHYL- N -((1,2,3,5,6,7-HEXAHYDRO- S -INDACEN-4-YL)CARBAMOYL)PIPERIDINE-4 -SULFONAMIDE” (Hoffmann-La Roche Inc., priority 2021, published 2024).
Entries after “also recorded” stand apart in the source; their conditions may differ.

Columns and labels:
[1] = for Limit solubilities after 48 h at 20° C.; measured by Q 1H NMR: 4-aminoindacene (level of hydrolytic precursor measured in solution): 50 mg/ml
Procedure: (§1) Crystalline 1-ethyl-N-((1,2,3,5,6,7-hexahydro-s-indacen-4-yl)carbamoyl)piperidine-4-sulfonamide salts (50 mg, 1 wt.) or crystalline 1-ethyl-N-((1,2,3,5,6,7-hexahydro-s-indacen-4-yl)carbamoyl)piperidine-4-sulfonamide free acid (as a control) (50 mg, 1 wt.) were stirred in purified water (1000 μl, 20 vol.) at 20° C. Limit solubilities (mg/ml) were determined after 48 hours at 20° C. measured by Q ^1H NMR (measured against an internal standard, 2,3,5,6-tetrachloronitrobenzene).

[2] = Solubility determinations: limit solubility in purified water by Q 1H NMR
Procedure: as §1

[3] = Mechanical grinding of Form A, XRPD analysis; type: physicochemical; conditions: ground for 24 hours
Procedure: Form A (50.4 mg) was ground for 24 hours. The product was recovered and analysed by XRPD to determine if any phase changes had occurred.

[4] = Water content / hygroscopicity of polymorphs; type: physicochemical
[5] = General assessment of polymorph solubility and stability to water/humidity; type: physicochemical
[6] = Competitive suspension equilibration of Form A and Form D in anhydrous acetonitrile; type: physicochemical; conditions: versus Form D, 20° C. or 40° C., 96 hours
Procedure: Form A (50 mg, 1 wt.) and Form D (amounts see Table 16) were charged to a vial and anhydrous acetonitrile (1000 μl, 20 vol.) was added. The vials were stirred at 20° C. or 40° C.for 96 hours.

SMILES | Limit solubilities after 48 h at 20° C.; measured by Q 1H NMR: Free acid form equivalent [1] [mg/mL] | Limit solubilities after 48 h at 20° C.; measured by Q 1H NMR: 4-aminoindacene (level of hydrolytic precursor measured in solution) [1] [mg/mL] | further results
CCN1CCC(S(=O)(=O)NC(=O)Nc2c3c(cc4c2CCC4)CCC3)CC1 [Form 3A, 1-ethyl-N-((1,2,3,5,6,7-hexahydro-s-indacen-4-yl)carbamoyl)piperidine-4-sulfonamide] | 38.0 | 0.0 | –
CCN1CCC(S(=O)(=O)NC(=O)Nc2c3c(cc4c2CCC4)CCC3)CC1 [Form 3B, 1-ethyl-N-((1,2,3,5,6,7-hexahydro-s-indacen-4-yl)carbamoyl)piperidine-4-sulfonamide] | 6.3 | 0.0 | –
CCN1CCC(S(=O)(=O)NC(=O)Nc2c3c(cc4c2CCC4)CCC3)CC1 [Form 3C, 1-ethyl-N-((1,2,3,5,6,7-hexahydro-s-indacen-4-yl)carbamoyl)piperidine-4-sulfonamide] | 4.5 | 2.6 | –
CCN1CCC(S(=O)(=O)NC(=O)Nc2c3c(cc4c2CCC4)CCC3)CC1 [Form 3D, 1-ethyl-N-((1,2,3,5,6,7-hexahydro-s-indacen-4-yl)carbamoyl)piperidine-4-sulfonamide] | – | – | solubility at 48 h ([2]; purified water, 20 °C, water, thermodynamic from solid, Limit solubilities after 48 h at 20° C., measured by Q 1H NMR: Free acid form equivalent, 50 mg in purified water 1000 μl (20 vol.), 20° C., 48 h): 3900 µg/mL; Observation at 18 hours ([2]; stirred in purified water (20 vol.) at 20° C., 18 hours): suspension
CCN1CCC(S(=O)(=O)NC(=O)Nc2c3c(cc4c2CCC4)CCC3)CC1 [Form 3E, 1-ethyl-N-((1,2,3,5,6,7-hexahydro-s-indacen-4-yl)carbamoyl)piperidine-4-sulfonamide] | 3.3 | 0.8 | –
CCN1CCC(S(=O)(=O)NC(=O)Nc2c3c(cc4c2CCC4)CCC3)CC1 [Form 3F, 1-ethyl-N-((1,2,3,5,6,7-hexahydro-s-indacen-4-yl)carbamoyl)piperidine-4-sulfonamide] | 2.1 | 0.8 | –
CCN1CCC(S(=O)(=O)NC(=O)Nc2c3c(cc4c2CCC4)CCC3)CC1 [Form 3G, 1-ethyl-N-((1,2,3,5,6,7-hexahydro-s-indacen-4-yl)carbamoyl)piperidine-4-sulfonamide] | 1.5 | 0.5 | –
CCN1CCC(S(=O)(=O)NC(=O)Nc2c3c(cc4c2CCC4)CCC3)CC1 [Form 3H, 1-ethyl-N-((1,2,3,5,6,7-hexahydro-s-indacen-4-yl)carbamoyl)piperidine-4-sulfonamide] | 0.6 | 0.0 | –
CCN1CCC(S(=O)(=O)NC(=O)Nc2c3c(cc4c2CCC4)CCC3)CC1 [Form 3I, 1-ethyl-N-((1,2,3,5,6,7-hexahydro-s-indacen-4-yl)carbamoyl)piperidine-4-sulfonamide] | 0.3 | 0.0 | –
CCN1CCC(S(=O)(=O)NC(=O)Nc2c3c(cc4c2CCC4)CCC3)CC1 [Form 3J, 1-ethyl-N-((1,2,3,5,6,7-hexahydro-s-indacen-4-yl)carbamoyl)piperidine-4-sulfonamide] | 0.0 | 0.1 | –
CCN1CCC(S(=O)(=O)NC(=O)Nc2c3c(cc4c2CCC4)CCC3)CC1.[K] [Form A, 1-Ethyl-N-((1,2,3,5,6,7-hexahydro-s-indacen-4-yl)carbamoyl)piperidine-4-sulfonamide Monopotassium Form A] | – | – | Phase change after grinding (XRPD) [3]: no significant change of polymorphic form; also recorded: stable to prolonged grinding conditions; Hygroscopicity [4]: hygroscopic; Non-assimilated water observed ([4]; depends on preparation and storage conditions): up to 3%; Solubility (qualitative) [5]: good solubility; Thermodynamic stability of polymorphic form [6]: more thermodynamically stable polymorphic form; also recorded: thermodynamically stable
CCN1CCC(S(=O)(=O)NC(=O)Nc2c3c(cc4c2CCC4)CCC3)CC1.[K] [Form D, 1-Ethyl-N-((1,2,3,5,6,7-hexahydro-s-indacen-4-yl)carbamoyl)piperidine-4-sulfonamide Monopotassium Form D] | – | – | Stability in the presence of water ([5]; water as solvent or co-solvent or humidity (such as >30% RH at 25° C.)): stable in the presence of water
